Reference: US12509422B2, “Bisamide compound and application thereof” (METISA BIOTECHNOLOGY CO., LTD, priority 2019, dated 2025)

System: Chilo suppressalis
Test: Insecticidal activity against Chilo suppressalis, sprayed Oryza sativa seedlings, stalks fed to larvae
Type: in vivo
Conditions: parallel comparison test; for pest or weed control at 1 µg/mL / pest or weed control at 10 µg/mL: Chilo suppressalis, 72 h, 3 days after the treatment; for pest or weed control at 1 µg/mL: 1 mg/L, read-out: Lethality rate (%, 3 days after the treatment) 1 mg/L; for pest or weed control at 10 µg/mL: 10 mg/L, read-out: Lethality rate (%, 3 days after the treatment) 10 mg/L
Method: The compounds of the invention were determined for the insecticidal activities against several insects. The determination method was as follows:
After being dissolved in a mixed solvent of acetone/methanol (1:1), the test compound was diluted with water containing 0.1% (wt) Tween 80 to the desired concentration.
With Leucania separata, Plutella xylostella, and Chilo suppressalis as targets, airbrush spray method was used for the determination of activity.
Determination method: 1) Preparation of Oryza sativa seedlings: Oryza sativa was cultivated in a constant temperature room (a temperature of 26-28° C., a relative humidity of about 60-80%, and a light illumination of 16hL:8hD) in a small plastic cup with a diameter of 4.5 cm and a height of 4 cm, and when the Oryza sativa grew up to the 4-5 leaf stage, robust and consistent Oryza sativa seedlings were selected for chemical treatment, and 3 repetitions were performed for each treatment. 2) Preparation for test insects: Chilo suppressalis at 3rd instar larvae were raised continuously indoors. 3) The Oryza sativa stems were sprayed and insects were introduced. Spraying was performed uniformly on the whole plant of the Oryza sativa seedlings, with 15 ml of compound solution for each treatment. The blank control was treated first, and then the above operations were repeated in the order of the test concentration from low to high. After the Oryza sativa seedlings were sprayed, they were placed in a cool place to dry the liquid, and about 5 cm of stalks at the base of the stems were cut and fed to the test insects. A glass petri dish with a diameter of 90 mm was placed with filter paper at the bottom of the dish, and then was moisturized by adding water. After that, about 5 rice stalks and 10 larvae were placed in each dish, and the petri dish was sealed with a non-woven fabric and placed in a constant temperature room for cultivation. The number of remaining live insects was investigated 3 days after the treatment.
The compounds 1, 3, 7, 11 of this disclosure and the comparative compounds were selected for a parallel comparison test of the insecticidal activity against Chilo suppressalis (3 days after the treatment), through a same determination method as that described above.

Question: What does the source list for O=C(Nc1c(Br)cc(C(F)(C(F)(F)F)C(F)(F)F)cc1Br)c1cccc(N(CC2CC2)C(=O)c2ccc(F)cc2)c1F [Compound 1-1]?
Answer: pest or weed control at 1 µg/mL: 50%; pest or weed control at 10 µg/mL: 100%; Lethality rate (%, 3 days after the treatment) 0.25 mg/L: 0%; Lethality rate (%, 3 days after the treatment) 0.5 mg/L: 13.33%

Question: For O=C(Nc1c(Br)cc(C(F)(C(F)(F)F)C(F)(F)F)cc1Br)c1cccc(N(CC2CC2)C(=O)c2cccnc2)c1F [Compound 1-2], which pest or weed control at 1 µg/mL is on record?
Answer: Its pest or weed control at 1 µg/mL is 0%.

Question: What about the pest or weed control at 10 µg/mL of the same molecule?
Answer: Its pest or weed control at 10 µg/mL is 0%.

Question: How did the pest or weed control at 1 µg/mL turn out when O=C(Nc1c(Br)cc(C(F)(C(F)(F)F)C(F)(F)F)cc1C(F)(F)F)c1cccc(N(CC2CC2)C(=O)c2ccc(F)cc2)c1F [Compound 2-1] was run?
Answer: Its pest or weed control at 1 µg/mL is 96.7%.

Question: What about the pest or weed control at 10 µg/mL of the same molecule?
Answer: Its pest or weed control at 10 µg/mL is 100%.

Question: What about the “Lethality rate (%, 3 days after the treatment) 0.25 mg/L” value of the same molecule?
Answer: The value was 23.33%.

Question: And the “Lethality rate (%, 3 days after the treatment) 0.5 mg/L” value?
Answer: The value was 66.67%.

Question: Which pest or weed control at 1 µg/mL does the source give for O=C(Nc1c(Br)cc(C(F)(C(F)(F)F)C(F)(F)F)cc1C(F)(F)F)c1cccc(N(CC2CC2)C(=O)c2ccc(C(F)(F)F)cc2)c1F [Compound 3-1] here?
Answer: Its pest or weed control at 1 µg/mL is 56.7%.

Question: And the pest or weed control at 10 µg/mL?
Answer: The pest or weed control at 10 µg/mL was 100%.

Question: What about the “Lethality rate (%, 3 days after the treatment) 0.25 mg/L” value of the same molecule?
Answer: The value was 0%.

Question: What about the “Lethality rate (%, 3 days after the treatment) 0.5 mg/L” value of the same molecule?
Answer: Its value is 26.67%.

Question: What does the source list for O=C(Nc1c(Br)cc(C(F)(C(F)(F)F)C(F)(F)F)cc1C(F)(F)F)c1cccc(N(CC2CC2)C(=O)c2ccc(F)nc2)c1F [Compound 3]?
Answer: pest or weed control at 1 µg/mL: 100%; pest or weed control at 10 µg/mL: 100%; Lethality rate (%, 3 days after the treatment) 0.25 mg/L: 100%; Lethality rate (%, 3 days after the treatment) 0.5 mg/L: 100%

Question: Which pest or weed control at 1 µg/mL does the source give for N#Cc1ccc(C(=O)N(CC2CC2)c2cccc(C(=O)Nc3c(Br)cc(C(F)(C(F)(F)F)C(F)(F)F)cc3C(F)(F)F)c2F)cc1 [Compound 4-1] here?
Answer: The pest or weed control at 1 µg/mL was 93.3%.

Question: What about the pest or weed control at 10 µg/mL of the same molecule?
Answer: The pest or weed control at 10 µg/mL was 100%.

Question: What about the “Lethality rate (%, 3 days after the treatment) 0.25 mg/L” value of the same molecule?
Answer: The value was 16.67%.

Question: What about the “Lethality rate (%, 3 days after the treatment) 0.5 mg/L” value of the same molecule?
Answer: The value was 53.33%.

Question: Which results are given for O=C(Nc1c(Br)cc(C(F)(C(F)(F)F)C(F)(F)F)cc1C(F)(F)F)c1cccc(N(CC2CC2)C(=O)c2cccnc2)c1F [Compound 5-1]?
Answer: pest or weed control at 1 µg/mL: 0%; pest or weed control at 10 µg/mL: 16.7%

Question: For O=C(Nc1c(Br)cc(C(F)(C(F)(F)F)C(F)(F)F)cc1C(F)(F)F)c1cccc(N(CC2CC2)C(=O)c2ccc(Cl)nc2)c1F [Compound 5-2], which pest or weed control at 1 µg/mL is on record?
Answer: Its pest or weed control at 1 µg/mL is 33.3%.

Question: And the pest or weed control at 10 µg/mL?
Answer: Its pest or weed control at 10 µg/mL is 70%.

Question: What about the “Lethality rate (%, 3 days after the treatment) 0.5 mg/L” value of the same molecule?
Answer: Its value is 0%.

Question: What does the source list for N#Cc1ccc(C(=O)N(CC2CC2)c2cccc(C(=O)Nc3c(Br)cc(C(F)(C(F)(F)F)C(F)(F)F)cc3C(F)(F)F)c2F)cn1 [Compound 11]?
Answer: pest or weed control at 1 µg/mL: 100%; pest or weed control at 10 µg/mL: 100%; Lethality rate (%, 3 days after the treatment) 0.25 mg/L: 100%; Lethality rate (%, 3 days after the treatment) 0.5 mg/L: 100%
